Laboratory results: US20230219986A1, “NOVEL AMINOPYRIMIDINE EGFR INHIBITOR” (QILU PHARMACEUTICAL CO., LTD., priority 2020, published 2023)
pIC50: −log10 of the molar value. Where a name gives a salt, the structure may show the parent alone. Read-outs that look alike come from different tables or passages of the source.

Tests used:
[1] = test system: EGFR wild-type cell line A431; assay: Cell proliferation inhibition experiment (CellTiter-Glo), A431; assay type: cell-based; settings: Homo sapiens, A431 cells, Cell Titer-Glo, read-out: A431 EGFR WT IC50
Procedure: A431 cells, purchased from ATCC.
1) A431 cells were inoculated in a 384-well culture plate at a density of 800 cells per well, 30 μL per well, placed in a cell incubator, and cultured for 24 hours (37° C., 5% CO2).
(§1) 3) 30 nL of gradient diluted compound was transferred into the 384-well experimental plate using Echo 550 (Labcyte) at a DMSO final concentration of 0.1%, and the culture plate was incubated in a cell incubator for 72 hours (37° C., 5% CO2).
(§2) 4) 30 μL of Cell Titer-Glo reagent was added to each well and left for 30 minutes at room temperature and protected from light.
(§3) 5) Envision microplate reader (PerkinElmer) detected chemiluminescence signals.
(§4) 6) GraphPad Prism 8 software was used for data analysis to obtain the IC50 of the compounds of the present disclosure and the positive control.

[2] = target: Ba/F3 L858R/T790M/C797S EGFR triple mutant cell line (Homo sapiens, UniProt P00533, T790M/C797S/L858R, cells depend on it); assay: Cell proliferation inhibition experiment (CellTiter-Glo), Ba/F3 L858R/T790M/C797S; assay type: cell-based; settings: 72 hours, Cell Titer-Glo, read-out: Ba/F3 (L858R/T790M/C797S) IC50
Ba/F3 L858R/T790M/C797S EGFR triple mutant cell line, sequence (P00533 whole entry T790M/C797S/L858R): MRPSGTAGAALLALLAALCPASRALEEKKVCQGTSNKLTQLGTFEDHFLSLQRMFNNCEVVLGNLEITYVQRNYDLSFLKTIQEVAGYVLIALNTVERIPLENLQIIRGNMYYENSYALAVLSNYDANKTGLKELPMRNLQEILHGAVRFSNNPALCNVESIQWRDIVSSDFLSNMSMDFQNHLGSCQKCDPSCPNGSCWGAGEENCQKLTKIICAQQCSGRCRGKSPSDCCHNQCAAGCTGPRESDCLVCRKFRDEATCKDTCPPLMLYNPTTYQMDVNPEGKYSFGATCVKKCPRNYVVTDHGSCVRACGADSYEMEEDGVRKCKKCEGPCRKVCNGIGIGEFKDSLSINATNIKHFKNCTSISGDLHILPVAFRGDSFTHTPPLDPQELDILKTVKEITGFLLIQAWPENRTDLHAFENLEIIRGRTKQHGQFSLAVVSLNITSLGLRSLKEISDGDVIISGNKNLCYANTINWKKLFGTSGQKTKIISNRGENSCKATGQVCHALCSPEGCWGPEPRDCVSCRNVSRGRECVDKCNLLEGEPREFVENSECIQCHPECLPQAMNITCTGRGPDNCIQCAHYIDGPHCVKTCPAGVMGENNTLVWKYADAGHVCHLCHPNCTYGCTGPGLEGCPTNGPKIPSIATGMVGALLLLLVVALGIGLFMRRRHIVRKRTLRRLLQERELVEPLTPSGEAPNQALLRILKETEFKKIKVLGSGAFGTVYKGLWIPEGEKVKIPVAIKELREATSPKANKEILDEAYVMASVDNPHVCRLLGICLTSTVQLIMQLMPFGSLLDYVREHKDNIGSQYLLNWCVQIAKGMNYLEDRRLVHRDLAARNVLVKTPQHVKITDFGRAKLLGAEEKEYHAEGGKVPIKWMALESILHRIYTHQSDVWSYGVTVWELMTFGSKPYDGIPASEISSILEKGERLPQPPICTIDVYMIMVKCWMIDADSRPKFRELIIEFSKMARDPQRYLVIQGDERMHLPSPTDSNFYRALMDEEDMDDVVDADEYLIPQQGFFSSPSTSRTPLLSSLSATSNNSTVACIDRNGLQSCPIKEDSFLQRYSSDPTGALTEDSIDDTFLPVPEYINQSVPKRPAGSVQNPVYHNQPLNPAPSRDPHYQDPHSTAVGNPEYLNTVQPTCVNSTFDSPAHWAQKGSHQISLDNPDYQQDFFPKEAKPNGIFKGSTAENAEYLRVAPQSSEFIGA
Procedure: as §1, §2, §3, §4

[3] = target: T1, L858R/T790M/C797S triple mutant EGFR (Homo sapiens, UniProt P00533, C797S/L858R/T790M); assay: Enzymology experiment in vitro (HTRF/FRET kinase activity), L858R/T790M/C797S triple mutant EGFR; assay type: biochemical; settings: HTRF KinEASE-TK, read-out: EGFR (L858R/T790M/C797S) IC50
T1 construct: purchased Signalchem
T1 sequence (P00533 25-1210 T790M/C797S/L858R): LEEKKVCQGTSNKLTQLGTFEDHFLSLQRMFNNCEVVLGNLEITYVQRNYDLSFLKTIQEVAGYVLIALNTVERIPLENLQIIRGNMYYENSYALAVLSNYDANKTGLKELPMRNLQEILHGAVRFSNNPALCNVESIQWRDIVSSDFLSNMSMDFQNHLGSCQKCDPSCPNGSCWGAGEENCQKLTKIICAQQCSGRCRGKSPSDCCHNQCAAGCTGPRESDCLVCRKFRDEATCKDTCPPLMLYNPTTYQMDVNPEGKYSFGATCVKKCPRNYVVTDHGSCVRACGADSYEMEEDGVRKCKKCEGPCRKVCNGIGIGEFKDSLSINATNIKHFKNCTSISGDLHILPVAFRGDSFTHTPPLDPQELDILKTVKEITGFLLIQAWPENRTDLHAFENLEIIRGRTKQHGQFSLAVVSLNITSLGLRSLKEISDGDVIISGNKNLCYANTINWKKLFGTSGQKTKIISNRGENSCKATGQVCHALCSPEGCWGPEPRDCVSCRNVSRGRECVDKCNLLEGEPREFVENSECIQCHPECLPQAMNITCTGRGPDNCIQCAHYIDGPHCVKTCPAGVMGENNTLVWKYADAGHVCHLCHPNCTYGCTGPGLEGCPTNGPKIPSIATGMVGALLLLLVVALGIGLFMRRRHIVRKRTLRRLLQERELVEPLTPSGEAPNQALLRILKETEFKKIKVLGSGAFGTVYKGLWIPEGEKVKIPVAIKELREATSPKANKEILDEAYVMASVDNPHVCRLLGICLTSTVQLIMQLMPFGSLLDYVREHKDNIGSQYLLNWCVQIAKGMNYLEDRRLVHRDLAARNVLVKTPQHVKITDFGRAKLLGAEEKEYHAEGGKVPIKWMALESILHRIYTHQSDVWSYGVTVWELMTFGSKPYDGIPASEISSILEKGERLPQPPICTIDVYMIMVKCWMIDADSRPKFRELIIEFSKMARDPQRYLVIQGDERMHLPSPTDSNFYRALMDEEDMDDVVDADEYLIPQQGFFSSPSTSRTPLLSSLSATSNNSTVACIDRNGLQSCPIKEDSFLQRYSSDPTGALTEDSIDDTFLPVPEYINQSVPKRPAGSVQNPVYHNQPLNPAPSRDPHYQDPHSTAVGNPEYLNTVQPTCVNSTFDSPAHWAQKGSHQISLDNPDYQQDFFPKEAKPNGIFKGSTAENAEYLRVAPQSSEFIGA
Procedure: (§5) 1. Experimental Materials
(§6) HTRF KinEASE-TK kit detection reagent, purchased from Cisbio
(§7) 1) 10 nL of gradient diluted compound was transferred into a 384-well experimental plate using Echo 550 (Labcyte).
(§8) 2) 5 μL of 2×EGFR enzyme solution was added to the 384-well experimental plate and incubated at room temperature for 10 minutes.
(§9) 3) 5 μL of 2× substrate solution containing polypeptide and ATP was added to the 384-well experimental plate and incubated at room temperature for 40 minutes.
(§10) 4) 10 μL of detection solution containing EDTA, XL665-labeled streptavidin and Eu^3+-labeled antibody was added thereto and incubated at room temperature for 1 hour.

wild-type EGFR = target: T2, wild-type EGFR (Homo sapiens, UniProt P00533); assay: Enzymology experiment in vitro (HTRF/FRET kinase activity), wild-type EGFR; assay type: biochemical; settings: HTRF KinEASE-TK, read-out: EGFR (WT) IC50
T2 construct: purchased Signalchem
T2 sequence (P00533 25-1210): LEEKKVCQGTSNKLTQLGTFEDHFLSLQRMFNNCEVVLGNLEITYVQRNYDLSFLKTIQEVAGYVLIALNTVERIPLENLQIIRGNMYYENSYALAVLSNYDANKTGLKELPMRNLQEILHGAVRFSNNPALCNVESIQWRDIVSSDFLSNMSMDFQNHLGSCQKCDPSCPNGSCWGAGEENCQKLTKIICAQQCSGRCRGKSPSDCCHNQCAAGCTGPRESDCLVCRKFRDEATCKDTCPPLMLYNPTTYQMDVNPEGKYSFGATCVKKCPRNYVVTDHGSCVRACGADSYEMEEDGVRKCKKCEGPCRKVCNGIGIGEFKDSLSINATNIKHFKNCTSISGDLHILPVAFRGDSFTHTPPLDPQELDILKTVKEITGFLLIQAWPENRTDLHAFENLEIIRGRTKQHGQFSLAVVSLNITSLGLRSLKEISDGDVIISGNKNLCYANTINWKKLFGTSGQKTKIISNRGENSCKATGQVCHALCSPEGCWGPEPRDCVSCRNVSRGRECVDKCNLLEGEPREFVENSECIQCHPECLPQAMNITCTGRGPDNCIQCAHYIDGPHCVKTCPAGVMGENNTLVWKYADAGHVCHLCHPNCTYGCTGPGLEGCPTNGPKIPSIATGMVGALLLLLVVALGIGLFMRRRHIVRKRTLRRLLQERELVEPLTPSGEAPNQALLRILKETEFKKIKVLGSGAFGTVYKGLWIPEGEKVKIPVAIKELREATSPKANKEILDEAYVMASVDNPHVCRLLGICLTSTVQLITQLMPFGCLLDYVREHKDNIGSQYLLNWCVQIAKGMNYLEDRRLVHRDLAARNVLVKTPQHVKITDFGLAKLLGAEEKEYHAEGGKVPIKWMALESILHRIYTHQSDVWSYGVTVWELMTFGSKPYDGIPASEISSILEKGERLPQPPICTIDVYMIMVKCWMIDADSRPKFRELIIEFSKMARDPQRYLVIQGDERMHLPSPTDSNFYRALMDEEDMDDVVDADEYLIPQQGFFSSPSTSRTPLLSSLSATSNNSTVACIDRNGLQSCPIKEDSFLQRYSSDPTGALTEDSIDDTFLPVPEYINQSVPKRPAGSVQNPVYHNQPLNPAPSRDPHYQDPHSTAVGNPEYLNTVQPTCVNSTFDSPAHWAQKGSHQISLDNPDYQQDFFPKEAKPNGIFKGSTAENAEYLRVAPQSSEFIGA
Procedure: as §5, §6, §7, §8, §9, §10

[4] = target: Ba/F3 De119/T790M/C797S EGFR triple mutant cell line (Homo sapiens, UniProt P00533, T790M/C797S, cells depend on it, form not given); assay: Cell proliferation inhibition experiment (CellTiter-Glo), Ba/F3 De119/T790M/C797S; assay type: cell-based; settings: Ba/F3 Del19/T790M/C797S EGFR triple mutant cells, 72 hours, Cell Titer-Glo; read-out: Ba/F3 (Del19/T790M/C797S) IC50
Ba/F3 De119/T790M/C797S EGFR triple mutant cell line, sequence (P00533 with tags, fused parts or gaps DEL746-750/T790M/C797S, form open): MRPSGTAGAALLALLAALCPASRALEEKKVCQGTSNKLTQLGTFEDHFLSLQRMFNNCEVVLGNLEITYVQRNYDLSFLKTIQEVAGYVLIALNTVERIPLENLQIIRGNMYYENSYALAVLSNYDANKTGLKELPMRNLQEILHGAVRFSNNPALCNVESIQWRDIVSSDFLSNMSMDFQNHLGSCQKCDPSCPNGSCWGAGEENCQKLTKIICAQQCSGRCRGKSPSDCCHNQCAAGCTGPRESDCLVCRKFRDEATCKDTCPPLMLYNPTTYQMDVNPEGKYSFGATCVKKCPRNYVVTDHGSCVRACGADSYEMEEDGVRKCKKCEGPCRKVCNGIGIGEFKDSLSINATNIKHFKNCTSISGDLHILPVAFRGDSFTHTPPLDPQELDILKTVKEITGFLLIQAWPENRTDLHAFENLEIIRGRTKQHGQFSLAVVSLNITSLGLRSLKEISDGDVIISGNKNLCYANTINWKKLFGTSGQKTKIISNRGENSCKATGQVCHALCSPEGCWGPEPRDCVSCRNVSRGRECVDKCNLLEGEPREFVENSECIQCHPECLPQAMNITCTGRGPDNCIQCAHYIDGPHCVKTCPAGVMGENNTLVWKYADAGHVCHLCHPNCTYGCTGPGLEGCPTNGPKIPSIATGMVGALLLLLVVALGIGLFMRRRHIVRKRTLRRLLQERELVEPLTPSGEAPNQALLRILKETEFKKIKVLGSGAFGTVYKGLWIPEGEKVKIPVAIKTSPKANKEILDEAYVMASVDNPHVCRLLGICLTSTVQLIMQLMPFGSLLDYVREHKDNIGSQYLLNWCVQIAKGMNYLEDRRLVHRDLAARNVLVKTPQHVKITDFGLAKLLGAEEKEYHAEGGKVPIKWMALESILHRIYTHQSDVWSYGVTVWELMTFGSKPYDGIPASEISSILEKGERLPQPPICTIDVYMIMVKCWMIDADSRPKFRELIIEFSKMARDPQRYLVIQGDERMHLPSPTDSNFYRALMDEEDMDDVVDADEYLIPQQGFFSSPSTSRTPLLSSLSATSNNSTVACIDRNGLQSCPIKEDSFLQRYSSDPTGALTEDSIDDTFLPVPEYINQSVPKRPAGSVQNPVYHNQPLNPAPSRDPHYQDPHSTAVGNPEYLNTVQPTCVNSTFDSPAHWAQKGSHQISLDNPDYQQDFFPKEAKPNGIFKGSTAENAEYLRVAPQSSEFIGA
Procedure: as §1, §2, §3, §4

GI50 [2] [nM]	pIC50 [3]	pIC50 (wild-type EGFR)	GI50 [4] [nM]	pIC50 ([1]; A-431, 72 h)	Structure (SMILES)	pIC50 ([1]; A-431, 72 hours)
2.13	10.10	8.44	1.28	7.17	Cn1cc(-c2cc(Nc3ncc(Br)c(Nc4ccc5nccnc5c4P(C)(C)=O)n3)c3c(c2N2CCOCC2)CCO3)cn1 [Compound 17, (6-((5-bromo-2-((5-(1-methyl-1H-pyrazol-4-yl)-4-morpholino-2,3-dihydrobenzofuran-7-yl)amino)pyrimidin-4-yl)amino)quinoxalin-5-yl)dimethylphosphine oxide]	
12.8	9.60	9.42	4.58	6.71	CCc1cnc(Nc2cc(-c3cnn(C)c3)c(N3CCOCC3)cc2OC)nc1Nc1ccc2nccnc2c1P(C)(C)=O [Compound 31, (6-((5-ethyl-2-((2-methoxy-5-(1-methyl-1H-pyrazol-4-yl)-4-morpholinylphenyl)amino)pyrimidin-4-yl)amino)quinoxalin-5-yl)dimethylphosphine oxide]	
32.5	9.59	7.30	10.1	5.85	COc1cc(N2CCOCC2)c(-c2cnn(C)c2)cc1Nc1ncc(Br)c(Nc2cc(C)c3nccnc3c2P(C)(C)=O)n1 [Compound 33, (6-((5-bromo-2-((2-methoxy-5-(1-methyl-1H-pyrazol-4-yl)-4-morpholinylphenyl)amino)pyrimidin-4-yl)amino)-8-methylquinoxalin-5-yl)dimethylphosphine oxide]	
327	7.93	6.42	93.2	6.12	COc1cc(S(=O)(=O)N(C)C)c(-c2cnn(C)c2)cc1Nc1ncc(Br)c(Nc2ccc3nccnc3c2P(C)(C)=O)n1 [Compound 35, 4-((5-bromo-4-((5-(dimethylphosphoryl)quinoxalin-6-yl)amino)pyrimidin-2-yl)amino)-5-methoxy-N,N-dimethyl-2-(1-methyl-1H-pyrazol-4-yl)benzenesulfonamide]	
34.5	9.51	7.68	8.64	6.43	COc1cc(N2CCOCC2)c(-c2cnn(C)c2)cc1Nc1ncc(C2CC2)c(Nc2ccc3nccnc3c2P(C)(C)=O)n1 [Compound 41, (6-((5-cyclopropyl-2-((2-methoxy-5-(1-methyl-1H-pyrazol-4-yl)-4-morpholinylphenyl)amino)pyrimidin-4-yl)amino)quinoxalin-5-yl)dimethylphosphine oxide]	
69.2	8.91	6.78	6.76	≤ 5.30	COc1cc(N2CCOCC2)c(-c2cnn(C)c2)cc1Nc1nccc(Nc2ccc3nccnc3c2P(C)(C)=O)n1 [Compound 42, (6-((2-((2-methoxy-5-(1-methyl-1H-pyrazol-4-yl)-4-morpholinophenyl)amino)pyrimidin-4-yl)amino)quinoxalin-5-yl)dimethylphosphine oxide]	
19.2	9.77	7.76	5.91	6.52	COc1cc(C2CCOCC2)c(-c2cnn(C)c2)cc1Nc1ncc(Br)c(Nc2ccc3nccnc3c2P(C)(C)=O)n1 [Compound 69]	
13.5	9.35	7.53	9.89	6.20	COc1cc(N2CCOCC2)c(-c2cnn(C)c2)cc1Nc1ncc(Br)c(Nc2cc3c(cc2P(C)(C)=O)CC3)n1 [Compound 79, (4-((5-bromo-2-((2-methoxy-5-(1-methyl-1H-pyrazol-4-yl)-4-morpholinylphenyl)amino)pyrimidin-4-yl)amino)bicyclo[4.2.0]octa-1,3,5-trien-3-yl)dimethylphosphine oxide]	
10.1	11.00	8.05	5.37	6.38	COc1cc(N2CCOCC2)c(-c2cnn(C)c2)cc1Nc1ncc(Br)c(Nc2ccccc2NS(C)(=O)=O)n1 [Compound 80]	
21.7	9.55	7.74	7.85	6.74	Cn1cc(-c2cc(Nc3ncc(Br)c(Nc4ccc5nccnc5c4P(C)(C)=O)n3)c3c(c2)OCO3)cn1 [Compound 82, (6-((5-bromo-2-((6-(1-methyl-1H-pyrazol-4-yl)benzo[d][1,3]dioxol-4-yl)amino)pyrimidin-4-yl)amino)quinoxalin-5-yl)dimethylphosphine oxide]	
4.45	10.05	8.37	2.18	7.39	COc1cc(N2CCN(C(C)C)CC2)c(-c2cnn(C)c2)cc1Nc1ncc(Br)c(Nc2ccc3nccnc3c2P(C)(C)=O)n1 [Compound 88, (6-((5-bromo-2-((4-(4-isopropylpiperazin-1-yl)-2-methoxy-5-(1-methyl-1H-pyrazol-4-yl)phenyl)amino)pyrimidin-4-yl)amino)quinoxalin-5-yl)dimethylphosphine oxide]	
444	7.66	5.90	281	5.65	COc1cc(N2CCOCC2)c(-c2cnn(C)c2)cc1Nc1nc(Nc2ccccc2P(C)(C)=O)c2ccccc2n1 [compound 3]	
13.6	9.55	8.85	2.38	6.71	COc1cc(N2CCOCC2)c(-c2cnn(C)c2)cc1Nc1ncc(C)c(Nc2ccc3nccnc3c2P(C)(C)=O)n1 [compound 4]	
12.7	10.52	8.09	3.71	6.85	COc1ccc(-c2cnn(C)c2)cc1Nc1ncc(Br)c(Nc2ccc3nccnc3c2P(C)(C)=O)n1 [compound 5]	
110	9.06	7.12	55	6.35	COc1ccc(-c2cnoc2)cc1Nc1ncc(Br)c(Nc2ccc3nccnc3c2P(C)(C)=O)n1 [compound 9]	
10.7	10.00	8.34	6.06	7.33	COc1cc(N2CCC(N(C)C)C2)c(-c2cnn(C)c2)cc1Nc1ncc(Br)c(Nc2ccc3nccnc3c2P(C)(C)=O)n1 (stereo not shown) [compound 10]	
224	10.15	7.92	83.4	6.80	COc1cc(N2CC3CC2CN3C)c(-c2cnn(C)c2)cc1Nc1ncc(Br)c(Nc2ccc3nccnc3c2P(C)(C)=O)n1 (stereo not shown) [compound 11]	
45.9	10.30	8.80	6.32	7.12	COc1cc(N2CCCN(C)CC2)c(-c2cnn(C)c2)cc1Nc1ncc(Br)c(Nc2ccc3nccnc3c2P(C)(C)=O)n1 [compound 12]	
13.6	9.82	8.97	5.98	6.82	COc1cc(N2CCN(C(C)=O)CC2)c(-c2cnn(C)c2)cc1Nc1ncc(Br)c(Nc2ccc3nccnc3c2P(C)(C)=O)n1 [compound 14]	

Structure (SMILES)	GI50 [2] [nM]	pIC50 [3]	pIC50 (wild-type EGFR)	GI50 [4] [nM]	pIC50 ([1]; A-431, 72 h)	pIC50 ([1]; A-431, 72 hours)
COc1cc(N2CCC3(CC2)CN(C)C3)c(-c2cnn(C)c2)cc1Nc1ncc(Br)c(Nc2ccc3nccnc3c2P(C)(C)=O)n1 [Compound 16, (6-((5-bromo-2-((2-methoxy-5-(1-methyl-1H-pyrazol-4-yl)-4-(2-methyl-2,7-diazaspiro[3.5]nonan-7-yl)phenyl)amino)pyrimidin-4-yl)amino)quinoxalin-5-yl)dimethylphosphine oxide formate]	23.5	10.30	9.29	13.2		7.29
